Results reported in PubChem BioAssay AID1745844 (Carcinogenic Potency Database (CPDB), 2022).
Calls of active or inactive are those of the source. How the calls were made is not given here.

Test system: rodent lifetime carcinogenesis bioassay, tumor incidence TD50
Assay: carcinogenic potency in animals, long-term in vivo studies, CPDB compilation (AID 1745844)

## CCCCN(CCCCO)N=O
rat, strain F344/DuCrj, males, in drinking water, site: liver, lesion: hyperplastic nodule, dosed 106 weeks, study length 112 weeks
  TD50: 0.169 mg/kg/day
rat, strain F344/DuCrj, males, in drinking water, site: urinary bladder, lesion: papilloma, dosed 106 weeks, study length 112 weeks
  TD50: 0.447 mg/kg/day
rat, strain F344/DuCrj, males, in drinking water, site: urinary bladder, lesion: transitional-cell carcinoma, dosed 106 weeks, study length 112 weeks
  TD50: 0.432 mg/kg/day
rat, strain Fischer 344, females, in feed, site: urinary bladder, lesion: carcinoma, dosed 103 weeks, study length 103 weeks
  carcinogen call: positive
rat, strain Fischer 344, males, in drinking water, site: testis, lesion: Leydig-cell tumor, dosed 78 weeks, study length 78 weeks
  TD50: 0.386 mg/kg/day
rat, strain Fischer 344, males, in drinking water, site: urinary bladder, lesion: transitional-cell carcinoma, dosed 78 weeks, study length 78 weeks
  TD50: 0.175 mg/kg/day
rat, strain Fischer 344, males, in feed, site: liver, lesion: hepatocellular carcinoma, dosed 103 weeks, study length 103 weeks
  TD50: 185 mg/kg/day
rat, strain Fischer 344, males, in feed, site: urinary bladder, lesion: carcinoma, dosed 103 weeks, study length 103 weeks
  TD50: 0.549 mg/kg/day
rat, strain Sprague-Dawley, males, by gavage, site: lung, lesion: carcinoma, dosed 39 weeks, study length 74 weeks
  TD50: 166 mg/kg/day
rat, strain Sprague-Dawley, males, by gavage, site: urinary bladder, lesion: several types, types named in the paper, dosed 39 weeks, study length 74 weeks
  TD50: 1.17 mg/kg/day
rat, strain Sprague-Dawley, males, in drinking water, site: liver, lesion: liver-cell carcinoma, dosed 104 weeks, study length 104 weeks
  TD50: 271 mg/kg/day
rat, strain Sprague-Dawley, males, in drinking water, site: urinary bladder, lesion: carcinoma, dosed 104 weeks, study length 104 weeks
  TD50: 3.3 mg/kg/day

## CC(=O)Nc1ccc(N=Nc2cc(C)ccc2O)cc1
mouse, strain B6C3F1, females, in feed, site: all sites, lesion: leukemia + lymphoma, dosed 103 weeks, study length 105 weeks
  TD50: 1510 mg/kg/day
mouse, strain B6C3F1, females, in feed, site: all sites, lesion: lymphoma, dosed 103 weeks, study length 105 weeks
  TD50: 1680 mg/kg/day
mouse, strain B6C3F1, females, in feed, site: any site (literature study), lesion: several types, types named in the paper, dosed 103 weeks, study length 105 weeks
  TD50: 769 mg/kg/day
mouse, strain B6C3F1, females, in feed, site: liver, lesion: hepatocellular adenoma + hepatocellular carcinoma + neoplastic nodule, dosed 103 weeks, study length 105 weeks
  TD50: 1020 mg/kg/day
mouse, strain B6C3F1, females, in feed, site: liver, lesion: hepatocellular adenoma + hepatocellular carcinoma, dosed 103 weeks, study length 105 weeks
  TD50: 1020 mg/kg/day
mouse, strain B6C3F1, females, in feed, site: liver, lesion: hepatocellular adenoma, dosed 103 weeks, study length 105 weeks
  TD50: 1340 mg/kg/day
mouse, strain B6C3F1, males, in feed, site: any site (literature study), lesion: several types, types named in the paper, dosed 103 weeks, study length 104 weeks
  TD50: 17200 mg/kg/day
mouse, strain B6C3F1, males, in feed, site: lung, lesion: alveolar/bronchiolar adenoma + alveolar/bronchiolar carcinoma, dosed 103 weeks, study length 104 weeks
  TD50: 2440 mg/kg/day
mouse, strain B6C3F1, males, in feed, site: lung, lesion: alveolar/bronchiolar adenoma, dosed 103 weeks, study length 104 weeks
  TD50: 2150 mg/kg/day (inactive)
rat, strain Fischer 344, females, in feed, site: any site (literature study), lesion: several types, types named in the paper, dosed 103 weeks, study length 104 weeks
  carcinogen call: negative (inactive)
rat, strain Fischer 344, females, in feed, site: liver, lesion: hepatocellular adenoma + hepatocellular carcinoma + neoplastic nodule, dosed 103 weeks, study length 104 weeks
  TD50: 46800 mg/kg/day
rat, strain Fischer 344, males, in feed, site: liver, lesion: hepatocellular adenoma + hepatocellular carcinoma + neoplastic nodule, dosed 103 weeks, study length 104 weeks
  TD50: 833 mg/kg/day
rat, strain Fischer 344, males, in feed, site: liver, lesion: hepatocellular carcinoma + neoplastic nodule, dosed 103 weeks, study length 104 weeks
  TD50: 833 mg/kg/day
rat, strain Fischer 344, males, in feed, site: liver, lesion: neoplastic nodule, dosed 103 weeks, study length 104 weeks
  TD50: 380 mg/kg/day
rat, strain Fischer 344, males, in feed, site: stomach, lesion: all tumors, dosed 103 weeks, study length 104 weeks
  TD50: 4090 mg/kg/day

## NCCS(=O)(=O)O
rat, strain Wistar, females, in feed, site: mammary gland, lesion: fibroadenoma, dosed 78 weeks, study length 78 weeks
  carcinogen call: negative (inactive)
rat, strain Wistar, males, in feed, site: mammary gland, lesion: fibroadenoma, dosed 78 weeks, study length 78 weeks
  carcinogen call: negative (inactive)

## Nc1ccc2c(c1)C(=O)c1ccccc1C2=O
mouse, strain B6C3F1, females, in feed, site: all sites + liver, lesion: lymphoma + hepatocellular carcinoma, dosed 79 weeks, study length 94 weeks
  TD50: 1490 mg/kg/day
mouse, strain B6C3F1, females, in feed, site: all sites, lesion: lymphoma, dosed 79 weeks, study length 94 weeks
  TD50: 3160 mg/kg/day
mouse, strain B6C3F1, females, in feed, site: any site (literature study), lesion: several types, types named in the paper, dosed 79 weeks, study length 94 weeks
  TD50: 1620 mg/kg/day
mouse, strain B6C3F1, females, in feed, site: liver, lesion: hepatocellular adenoma + hepatocellular carcinoma + neoplastic nodule, dosed 79 weeks, study length 94 weeks
  TD50: 2820 mg/kg/day
mouse, strain B6C3F1, females, in feed, site: liver, lesion: hepatocellular carcinoma, dosed 79 weeks, study length 94 weeks
  TD50: 2820 mg/kg/day
mouse, strain B6C3F1, females, in feed, site: lung, lesion: alveolar/bronchiolar adenoma + alveolar/bronchiolar carcinoma, dosed 79 weeks, study length 94 weeks
  TD50: 33400 mg/kg/day
mouse, strain B6C3F1, males, in feed, site: any site (literature study), lesion: several types, types named in the paper, dosed 79 weeks, study length 93 weeks
  TD50: 952 mg/kg/day
mouse, strain B6C3F1, males, in feed, site: liver, lesion: hepatocellular adenoma + hepatocellular carcinoma + neoplastic nodule, dosed 79 weeks, study length 93 weeks
  TD50: 798 mg/kg/day
mouse, strain B6C3F1, males, in feed, site: liver, lesion: hepatocellular adenoma + hepatocellular carcinoma, dosed 79 weeks, study length 93 weeks
  TD50: 798 mg/kg/day
mouse, strain B6C3F1, males, in feed, site: liver, lesion: hepatocellular carcinoma, dosed 79 weeks, study length 93 weeks
  TD50: 755 mg/kg/day
mouse, strain B6C3F1, males, in feed, site: lung, lesion: alveolar/bronchiolar adenoma + alveolar/bronchiolar carcinoma, dosed 79 weeks, study length 93 weeks
  TD50: 19400 mg/kg/day
rat, strain Fischer 344, females, in feed, site: any site (literature study), lesion: several types, types named in the paper, dosed 78 weeks, study length 109 weeks
  TD50: 124 mg/kg/day (inactive)
rat, strain Fischer 344, males, in feed, site: any site (literature study), lesion: several types, types named in the paper, dosed 78 weeks, study length 106 weeks
  TD50: 759 mg/kg/day
rat, strain Fischer 344, males, in feed, site: liver, lesion: hepatocellular adenoma + hepatocellular carcinoma + neoplastic nodule, dosed 78 weeks, study length 106 weeks
  TD50: 101 mg/kg/day
rat, strain Fischer 344, males, in feed, site: liver, lesion: hepatocellular carcinoma + neoplastic nodule, dosed 78 weeks, study length 106 weeks
  TD50: 101 mg/kg/day
rat, strain Fischer 344, males, in feed, site: liver, lesion: hepatocellular carcinoma, dosed 78 weeks, study length 106 weeks
  TD50: 268 mg/kg/day

## OC(c1ccc(Cl)cc1)(c1ccc(Cl)cc1)C(Cl)(Cl)Cl
mouse, strain B6C3F1, females, in feed, site: any site (literature study), lesion: several types, types named in the paper, dosed 78 weeks, study length 91 weeks
  carcinogen call: negative (inactive)
mouse, strain B6C3F1, males, in feed, site: any site (literature study), lesion: several types, types named in the paper, dosed 78 weeks, study length 91 weeks
  TD50: 59.2 mg/kg/day
mouse, strain B6C3F1, males, in feed, site: liver, lesion: hepatocellular adenoma + hepatocellular carcinoma + neoplastic nodule, dosed 78 weeks, study length 91 weeks
  TD50: 32.9 mg/kg/day
mouse, strain B6C3F1, males, in feed, site: liver, lesion: hepatocellular adenoma + hepatocellular carcinoma, dosed 78 weeks, study length 91 weeks
  TD50: 32.9 mg/kg/day
mouse, strain B6C3F1, males, in feed, site: liver, lesion: hepatocellular carcinoma, dosed 78 weeks, study length 91 weeks
  TD50: 34.8 mg/kg/day
mouse, strain B6C3F1, males, in feed, site: lung, lesion: alveolar/bronchiolar adenoma + alveolar/bronchiolar carcinoma, dosed 78 weeks, study length 91 weeks
  TD50: 616 mg/kg/day
rat, strain Osborne-Mendel, females, in feed, site: any site (literature study), lesion: several types, types named in the paper, dosed 78 weeks, study length 111 weeks
  carcinogen call: negative (inactive)
rat, strain Osborne-Mendel, males, in feed, site: any site (literature study), lesion: several types, types named in the paper, dosed 78 weeks, study length 110 weeks
  carcinogen call: negative (inactive)
rat, strain Osborne-Mendel, males, in feed, site: liver, lesion: hepatocellular adenoma + hepatocellular carcinoma + neoplastic nodule, dosed 78 weeks, study length 110 weeks
  TD50: 517 mg/kg/day

## C/C=C/C=C/C(=O)O
mouse, strain ASH-CS1, females, in feed, site: liver, lesion: hyperplastic nodule, dosed 80 weeks, study length 80 weeks
  TD50: 362000 mg/kg/day (inactive)
mouse, strain ASH-CS1, females, in feed, site: lung, lesion: adenoma, dosed 80 weeks, study length 80 weeks
  carcinogen call: negative (inactive)
mouse, strain ASH-CS1, males, in feed, site: liver, lesion: hyperplastic nodule, dosed 80 weeks, study length 80 weeks
  carcinogen call: negative (inactive)
mouse, strain ASH-CS1, males, in feed, site: lung, lesion: adenoma, dosed 80 weeks, study length 80 weeks
  carcinogen call: negative (inactive)
rat, strain Wistar, females, in feed, site: any site (literature study), lesion: malignant tumor, dosed 104 weeks, study length 104 weeks
  carcinogen call: negative (inactive)
rat, strain Wistar, females, in feed, site: any site (literature study), lesion: several types, types named in the paper, dosed 104 weeks, study length 104 weeks
  carcinogen call: negative (inactive)
rat, strain Wistar, females, in feed, site: liver, lesion: hemangioma, dosed 104 weeks, study length 104 weeks
  TD50: 34000 mg/kg/day (inactive)
rat, strain Wistar, males, in feed, site: any site (literature study), lesion: malignant tumor, dosed 104 weeks, study length 104 weeks
  TD50: 51400 mg/kg/day (inactive)
rat, strain Wistar, males, in feed, site: any site (literature study), lesion: several types, types named in the paper, dosed 104 weeks, study length 104 weeks
  TD50: 33900 mg/kg/day (inactive)
rat, strain Wistar, males, in feed, site: liver, lesion: hemangioma, dosed 104 weeks, study length 104 weeks
  carcinogen call: negative (inactive)

## C=CC(O)c1ccc(OC)cc1 (stereo not given)
mouse, strain Charles River CD1, females, in feed, site: liver, lesion: hepatoma, dosed 51 weeks, study length 86 weeks
  TD50: 57.8 mg/kg/day
